# In patent US8178506B2, “Oligomeric compounds and compositions for use in modulation of small non-coding RNAs” (Regulus Therapeutics Inc., priority 2003, dated 2012):
# Experiments:
# Format in all cases: cell-based, human
# mir-21 miRNA = assay: pGL3-mir-21 sensor luciferase assay in HeLa cells
# Excerpt: In order to assess the ability of miRNAs to bind predicted miRNA binding sites and regulate the expression of the luciferase reporter, in some embodiments, expression systems based on the pGL3-Control (Promega Corp., Madison Wis.) reporter vector and comprising either a mir-15a, mir-21, or a mir-23b miRNA binding site were developed and used in transient transfections of HeLa cells to determine whether the endogenous mir-15a, mir-21, or mir-23b miRNAs, respectively, could repress luciferase reporter gene expression.
# The pGL3-mir-21 sensor plasmid was created by cloning the sequence ([…]; SEQ ID NO: 335), representing a sequence complementary to the mir-21 miRNA, into the Xba site of the pGL3-Control plasmid, placing the potential miRNA-binding site in the 3′UTR of the luciferase reporter. This reporter plasmid was used to transfect HeLa cells and it was observed that the endogenous mir-21 miRNA was able to inhibit luciferase expression from the pGL3-mir-21 sensor plasmid. Thus, to further evaluate the ability of the mir-21 miRNA to bind this target site encoded by the pGL3-mir-21 sensor plasmid, and to assess the ability of oligomeric compounds to interfere with mir-21-mediated silencing, pGL3-mir-21 sensor-expressing HeLa cells were treated with varying concentrations (10 nM or 50 nM) of the following oligomeric compounds: ISIS Number 327917 (SEQ ID NO: 335), a phosphorothioate uniform 2′-MOE oligomeric compound; ISIS Number 338697 ([…]; herein incorporated as SEQ ID NO: 524), a uniform 2′-MOE oligomeric compound targeting the mir-21 pri-miRNA molecule; and ISIS Number 328415 (SEQ ID NO: 524), a 2′-MOE 5-10-5 gapmer oligomeric compound targeting the mir-21 pri-miRNA. The uniform 2′-MOE phosphorothioate oligomeric compound ISIS Number 327901 (SEQ ID NO: 319) targeting an unrelated miRNA (mir-143) was used as a negative control. The data are the average of three trials and are presented in Table 44 as percent untreated control (luciferase plasmid only, not treated with oligomeric compound) luciferase expression, normalized to pRL-CMV levels.
# In one embodiment, the oligomeric compounds ISIS Number 327917 (SEQ ID NO: 335), the phosphorothioate uniform 2′-MOE targeting mature mir-21; ISIS Number 358768 (SEQ ID NO: 918), the uniform 2′-MOE targeting the mir-21 pri-miRNA which stimulated the largest increase in pri-miRNA expression levels by real time quantitative RT-PCR; and ISIS Number 345382 (SEQ ID NO: 335), the 5-10-7 phosphorothioate 2′-MOE gapmer targeting mature mir-21 were selected for dose response studies in HeLa cells using the luciferase reporter system described in Example 27. ISIS Number 342683 (SEQ ID NO: 790), representing the scrambled nucleotide sequence of an unrelated PTP1B antisense oligonucleotide, was used as a negative control. HeLa cells expressing the pGL3-mir-21 sensor plasmid (described in Example 27) were treated with 1.9, 5.5, 16.7, and 50 nM of these oligomeric compounds, to assess the ability of oligomeric compounds to interfere with endogenous mir-21-mediated silencing of the pGL3-mir-21 sensor plasmid. The data are presented in Table 50 as percent untreated control (luciferase plasmid only, not treated with oligomeric compound) luciferase expression, normalized to pRL-CMV levels.
# mir-21 mature miRNA = assay: Northern blot of mature mir-21 in HeLa cells; details: 100 nM
# Method: In one embodiment, the expression of mir-21 (noted to be expressed at high levels in HeLa cells) was assessed in cells treated with oligomeric compounds. Using the transfection methods previously described, HeLa cells were treated with 100 nM of the uniform 2′-MOE oligomeric compound ISIS Number 327917 (SEQ ID NO: 335) targeting the mir-21 mature miRNA. Total RNA was isolated by lysing cells in 1 mL TRIZOL™ (Invitrogen) using the manufacturer's recommended protocols. […] Real-time RT-PCR analysis was also performed on HeLa cells treated with ISIS 327917 using a primer/probe set specific for the mir-21 pri-miRNA molecule [forward primer=ISIS 339332 ([…]; herein incorporated as SEQ ID NO.: 911), reverse primer-ISIS 339333 (TCGACTGGTGTTGCCATGA; herein incorporated as SEQ ID NO.: 912), and probe=ISIS 339334 ([…]; herein incorporated as SEQ ID NO.: 913)]. Total RNA was quantified using RiboGreen™ RNA quantification reagent (Molecular Probes, Inc. Eugene, Oreg.), expression levels observed for the target were normalized to 5.8S rRNA, and values were expressed relative to an untreated control (UTC).
# mir-21 pri-miRNA = mir-21 pri-miRNA expression in HeLa cells (real-time RT-PCR)
sequence,measurement,setting,value
"TCAACATCAGTCTGATAAGCTA (chemistry not given here) [ISIS 327917, uniform 2′-MOE PS; targets mir-21]","expression of the luciferase reporter, pGL3-mir-21 sensor","mir-21 miRNA; HeLa, 10 nM or 50 nM",de-repressed the expression of the luciferase reporter
same,"expression of the luciferase reporter, pGL3-mir-21 sensor, dose response","mir-21 miRNA; HeLa, 1.9, 5.5, 16.7 and 50 nM","de-repressed the expression of the luciferase reporter, in a dose-dependent fashion"
same,expression levels of the mir-21 mature miRNA,mir-21 mature miRNA,50 % of those of untreated control cells
same,increase in levels of the mir-21 pri-miRNA molecule,"mir-21 pri-miRNA; HeLa, 100 nM",approximately 2 fold
same,levels of the mir-21 pri-miRNA molecule,"mir-21 pri-miRNA; HeLa, 100 nM",stimulate an increase in levels of the mir-21 pri-miRNA molecule
same,"mir-21 pri-miRNA levels, dose response","mir-21 pri-miRNA; HeLa, 25, 50, 100 and 200 nM",dose-responsive induction of mir-21 pri-miRNA levels
